In US20090221642A1, “MUSCARINIC RECEPTOR AGONISTS, COMPOSITIONS, METHODS OF TREATMENT THEREOF, AND PROCESSES FOR PREPARATION THEREOF-176” (AstraZeneca AB, priority 2008, published 2009):

These molecules were tested against T1, hM1 (human Muscarinic receptor subtype 1) (Homo sapiens, UniProt P11229) (assay: Human M1 calcium mobilization FLIPR assay). Conditions: hM1 expressed in CHO cells, intracellular Ca2+ release, read-out: hM1 EC50.
T1 construct: expressed in transfected cells; host or cells: CHO cells (Chinese hamster ovary cells, ATCC)
T1 sequence (P11229 1-460): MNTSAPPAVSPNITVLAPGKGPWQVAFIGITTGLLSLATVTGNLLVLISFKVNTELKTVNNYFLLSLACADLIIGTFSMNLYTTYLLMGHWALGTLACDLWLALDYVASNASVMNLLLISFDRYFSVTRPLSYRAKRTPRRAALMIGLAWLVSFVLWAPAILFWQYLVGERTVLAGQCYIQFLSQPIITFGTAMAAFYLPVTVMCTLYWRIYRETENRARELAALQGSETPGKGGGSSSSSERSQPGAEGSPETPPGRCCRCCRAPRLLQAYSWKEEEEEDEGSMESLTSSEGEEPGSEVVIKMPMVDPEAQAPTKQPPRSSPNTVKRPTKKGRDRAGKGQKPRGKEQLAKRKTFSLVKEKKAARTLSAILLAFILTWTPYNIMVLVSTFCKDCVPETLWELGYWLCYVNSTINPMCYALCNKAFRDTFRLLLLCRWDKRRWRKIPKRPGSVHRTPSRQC
Type: cell-based
Description: Human M1, rat M1, human M3 and human M5 Calcium Mobilization FLIPR™ Assay
The compound activity in the present invention (EC50 or IC50) is measured using a 384 plate-based imaging assay that monitors drug induced intracellular Ca^2+ release in whole cells. Activation of hM1 (human Muscarinic receptor subtype 1, gene bank access NM_000738), rM1 (rat Muscarinic receptor subtype 1, gene bank access NM_080773), hM3 (human Muscarinic receptor subtype 3, gene bank access NM_000740NM_000740) and hM5 (human Muscarinic receptor subtype 5, gene bank access NM_0121258), receptors expressed in CHO cells (Chinese hamster ovary cells, ATCC) is quantified in a Molecular Devices FLIPR II™ instrument as an increase in fluorescent signal. Inhibition of hM3 and hM5 by compounds is determined by the decrease in fluorescent signal in response to 2 nM acetylcholine activation.
Prior to experiment, the cell culture medium is removed from the plates by inversion. […] Plates are incubated at 37° C. for 60 minutes prior to start the experiment. The incubation is terminated by washing the cells four times in assay buffer, leaving a residual 25 μl buffer per well. Cell plates are then transferred to the FLIPR, ready for compound additions.
The day of experiment, acetylcholine and compounds are diluted in assay buffer in three-fold concentration range (10 points serial dilution) for addition by FLIPR instrument. For all calcium assays, a baseline reading is taken for 10 seconds followed by the addition of 12.5 μl of compounds, resulting in a total well volume of 37.5 μl. Data is collected every second for 60 pictures and then every 6 seconds for 20 pictures prior to the addition of agonist. For hM3 and hM5, before agonist addition, a second baseline reading is taken for 10 seconds followed by the addition of 12.5 μl of agonist or buffer, producing a final volume of 50 μl. After agonist stimulation, the FLIPR continues to collect data every second for 60 pictures and then every 6 seconds for 20 pictures. The fluorescence emission is read using filter 1 (emission 510-570 nm) by the FLIPR on board CCD camera.
Calcium mobilization output data are calculated as the maximal relative fluorescence unit (RFU) minus the minimal value for both compound and agonist reading frame (except for hM1 and rM1 using only the maximal RFU). Data are analyzed using sigmoidal fits of a non-linear curve-fitting program (XLfit version 4.2.2 Excel add-in version 4.2.2 build 18 math 1Q version 2.1.2 build 18). All pEC50 and plC50 values are reported as arithmetic means ±standard error of mean of ‘n’ independent experiments.

Compound | EC50 [nM]
COC(=O)N1CCC(C)(N2CCC(N3C(=O)Cc4cc(F)ccc43)CC2)C1 (racemic) [Example 78, methyl 3-(4-(5-fluoro-2-oxoindolin-1-yl)piperidin-1-yl)-3-methylpyrrolidine-1-carboxylate] | 76.2
CCOC(=O)N1CCC(C)(N2CCC(n3c(=O)[nH]c4cc(C)ccc43)CC2)C1 (single isomer, unassigned) [Example 13, ethyl 3-methyl-3-(4-(5-methyl-2-oxo-2,3-dihydro-1H-benzo[d]imidazol-1-yl)piperidin-1-yl)pyrrolidine-1-carboxylate] | 70.1
CC#CCOC(=O)N1CCC(C)(N2CCC(n3c(=O)[nH]c4ccc(C)cc43)CC2)C1 (single isomer, unassigned) [Example 18, but-2-ynyl 3-methyl-3-(4-(6-methyl-2-oxo-2,3-dihydro-1H-benzo[d]imidazol-1-yl)piperidin-1-yl)pyrrolidine-1-carboxylate] | 158
CC#CCOC(=O)N1CCC(C)(N2CCC(n3c(=O)[nH]c4cc(C)ccc43)CC2)C1 (single isomer, unassigned) [Example 19, but-2-ynyl 3-methyl-3-(4-(5-methyl-2-oxo-2,3-dihydro-1H-benzo[d]imidazol-1-yl)piperidin-1-yl)pyrrolidine-1-carboxylate] | 324
Cc1ccc2c(c1)[nH]c(=O)n2C1CCN(C2(C)CCN(C(=O)OCCF)C2)CC1 (single isomer, unassigned) [Example 29, 2-fluoroethyl 3-methyl-3-(4-(5-methyl-2-oxo-2,3-dihydro-1H-benzo[d]imidazol-1-yl)piperidin-1-yl)pyrrolidine-1-carboxylate] | 166
COC(=O)N1CCC(C)(N2CCC(n3c(=O)[nH]c4ccccc43)CC2)C1 (single isomer, unassigned) [Example 30, methyl 3-methyl-3-(4-(2-oxo-2,3-dihydro-1H-benzo[d]imidazol-1-yl)piperidin-1-yl)pyrrolidine-1-carboxylate] | 108
CC#CCOC(=O)N1CCC(C)(N2CCC(n3c(=O)[nH]c4cc(F)ccc43)CC2)C1 (single isomer, unassigned) [Example 35, but-2-ynyl 3-(4-(5-fluoro-2-oxo-2,3-dihydro-1H-benzo[d]imidazol-1-yl)piperidin-1-yl)-3-methylpyrrolidine-1-carboxylate] | 56.9
COC(=O)N1CCC(C)(N2CCC(n3c(=O)[nH]c4cc(F)ccc43)CC2)C1 (single isomer, unassigned) [Example 37, methyl 3-(4-(5-fluoro-2-oxo-2,3-dihydro-1H-benzo[d]imidazol-1-yl)piperidin-1-yl)-3-methylpyrrolidine-1-carboxylate] | 76.5
CC1(N2CCC(n3c(=O)[nH]c4cc(F)ccc43)CC2)CCN(C(=O)OCCF)C1 (single isomer, unassigned) [Example 38, 2-fluoroethyl 3-(4-(5-fluoro-2-oxo-2,3-dihydro-1H-benzo[d]imidazol-1-yl)piperidin-1-yl)-3-methylpyrrolidine-1-carboxylate] | 112
C#CCOC(=O)N1CCC(C)(N2CCC(n3c(=O)[nH]c4cc(C)ccc43)CC2)C1 (single isomer, unassigned) [Example 42, prop-2-ynyl 3-methyl-3-(4-(5-methyl-2-oxo-2,3-dihydro-1H-benzo[d]imidazol-1-yl)piperidin-1-yl)pyrrolidine-1-carboxylate] | 235
COC(=O)N1CCC(C)(N2CCC(n3c(=O)[nH]c4cc(C)ccc43)CC2)C1 (single isomer, unassigned) [Example 46, methyl 3-methyl-3-(4-(5-methyl-2-oxo-2,3-dihydro-1H-benzo[d]imidazol-1-yl)piperidin-1-yl)pyrrolidine-1-carboxylate] | 132
COC(=O)N1CCC(C)(N2CCC(n3c(=O)[nH]c4ccc(F)cc43)CC2)C1 (single isomer, unassigned) [Example 51, methyl 3-(4-(6-fluoro-2-oxo-2,3-dihydro-1H-benzo[d]imidazol-1-yl)piperidin-1-yl)-3-methylpyrrolidine-1-carboxylate] | 57.1
CC1(N2CCC(n3c(=O)[nH]c4ccc(F)cc43)CC2)CCN(C(=O)OCCF)C1 (single isomer, unassigned) [Example 54, 2-fluoroethyl 3-(4-(6-fluoro-2-oxo-2,3-dihydro-1H-benzo[d]imidazol-1-yl)piperidin-1-yl)-3-methylpyrrolidine-1-carboxylate] | 92.8
COC(=O)N1CCC(C)(N2CCC(n3c(=O)[nH]c4cc(F)c(F)cc43)CC2)C1 (single isomer, unassigned) [Example 59, methyl 3-(4-(5,6-difluoro-2-oxo-2,3-dihydro-1H-benzo[d]imidazol-1-yl)piperidin-1-yl)-3-methylpyrrolidine-1-carboxylate] | 77.6
CC1(N2CCC(n3c(=O)[nH]c4cc(F)c(F)cc43)CC2)CCN(C(=O)OCCF)C1 (single isomer, unassigned) [Example 62, 2-fluoroethyl 3-(4-(5,6-difluoro-2-oxo-2,3-dihydro-1H-benzo[d]imidazol-1-yl)piperidin-1-yl)-3-methylpyrrolidine-1-carboxylate] | 79.8
CCCOC(=O)N1CCC(C)(N2CCC(n3c(=O)[nH]c4ccc(F)cc43)CC2)C1 (single isomer, unassigned) [Example 63, propyl 3-(4-(6-fluoro-2-oxo-2,3-dihydro-1H-benzo[d]imidazol-1-yl)piperidin-1-yl)-3-methylpyrrolidine-1-carboxylate] | 344
CCCOC(=O)N1CCC(C)(N2CCC(n3c(=O)[nH]c4ccc(F)cc43)CC2)C1 (single isomer, unassigned) [Example 64, propyl 3-(4-(6-fluoro-2-oxo-2,3-dihydro-1H-benzo[d]imidazol-1-yl)piperidin-1-yl)-3-methylpyrrolidine-1-carboxylate] | 80.1
CC(C)OC(=O)N1CCC(C)(N2CCC(n3c(=O)[nH]c4ccc(F)cc43)CC2)C1 (single isomer, unassigned) [Example 65, isopropyl 3-(4-(6-fluoro-2-oxo-2,3-dihydro-1H-benzo[d]imidazol-1-yl)piperidin-1-yl)-3-methylpyrrolidine-1-carboxylate] | 104
CC(C)OC(=O)N1CCC(C)(N2CCC(n3c(=O)[nH]c4ccc(F)cc43)CC2)C1 (single isomer, unassigned) [Example 66, isopropyl 3-(4-(6-fluoro-2-oxo-2,3-dihydro-1H-benzo[d]imidazol-1-yl)piperidin-1-yl)-3-methylpyrrolidine-1-carboxylate] | 50.2
COC(=O)N1CCC(C)(N2CCC(N3C(=O)Cc4ccc(F)cc43)CC2)C1 (single isomer, unassigned) [Example 77, methyl 3-(4-(6-fluoro-2-oxoindolin-1-yl)piperidin-1-yl)-3-methylpyrrolidine-1-carboxylate] | 94.5
CC(C)OC(=O)N1CCC(C)(N2CCC(n3c(=O)[nH]c4ccccc43)CC2)C1 (centres unmarked) [Example 3, isopropyl 3-methyl-3-(4-(2-oxo-2,3-dihydro-1H-benzo[d]imidazol-1-yl)piperidin-1-yl)pyrrolidine-1-carboxylate] | 108
CC(C)OC(=O)N1CCC(C)(N2CCC(n3c(=O)[nH]c4cc(F)ccc43)CC2)C1 (centres unmarked) [Example 9, isopropyl 3-(4-(5-fluoro-2-oxo-2,3-dihydro-1H-benzo[d]imidazol-1-yl)piperidin-1-yl)-3-methylpyrrolidine-1-carboxylate] | 124
COC(=O)N1CCC(C)(N2CCC(N3C(=O)Cc4ccccc43)CC2)C1 (centres unmarked) [Example 71, methyl 3-methyl-3-(4-(2-oxoindolin-1-yl)piperidin-1-yl)pyrrolidine-1-carboxylate] | 123
